The target in one assay is Fms kinase (Homo sapiens, UniProt P07333). The experiment in a line: Fms kinase biochemical activity assay (AlphaScreen, biotin-(E4Y)10 phosphorylation). Conditions: 100 μM ATP; read-out: Biochemical Inhibition IC50 Fms. The method in brief: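 Fms kinase (1 ng/well) phosphorylating 30 nM biotin-(E4Y)10 with 100 μM ATP in 25 mM Hepes pH 7.5, MgCl2/MnCl2, 5% DMSO, 20 min at 30 °C. Phosphotyrosine detected by AlphaScreen streptavidin donor and PY20 acceptor beads; IC50 from signal versus compound concentration.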
In general terms: Alpha assays give light when donor and acceptor beads are brought close together.

A further assay has as its target T1, BCR-KIT BaF3 cells (Homo sapiens, UniProt P10721).
T1 construct: fused on or other part: P11274 (Breakpoint cluster region protein)
The experiment in a line: BaF3 BCR-KIT cell proliferation assay (ATPlite). The format is cell-based. Conditions: read-out: Inhibition of Cell Proliferation IC50, BCR/BaF3 Kit. A digest of the protocol:
(§1)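 Growth inhibition over 3 days at 37 °C; IC50 from ATPlite luminescence, 8 concentrations (1:3 steps, max 10 μM). BaF3 fusion lines were tested without IL-3.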
In general terms: Cellular ATP, detected with luciferase, serves as a proxy for viable cell number.

For another assay, the target named is T2, BCR-FMS BaF3 cells (Homo sapiens, UniProt P07333).
T2 construct: fused on or other part: P11274 (Breakpoint cluster region protein)
T2 sequence (P07333 582-910): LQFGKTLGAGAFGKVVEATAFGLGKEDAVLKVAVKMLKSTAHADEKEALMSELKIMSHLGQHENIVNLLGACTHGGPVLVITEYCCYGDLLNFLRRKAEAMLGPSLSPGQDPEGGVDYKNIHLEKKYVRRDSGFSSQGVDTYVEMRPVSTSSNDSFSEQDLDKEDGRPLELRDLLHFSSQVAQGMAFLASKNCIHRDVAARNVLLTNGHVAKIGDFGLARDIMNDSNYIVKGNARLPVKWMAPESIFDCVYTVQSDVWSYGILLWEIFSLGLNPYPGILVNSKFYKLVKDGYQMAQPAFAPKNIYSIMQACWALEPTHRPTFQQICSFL
The experiment in a line: BaF3 BCR-FMS cell proliferation assay (ATPlite). The format is cell-based. Conditions: read-out: Inhibition of Cell Proliferation IC50, BCR/BaF3 Fms. A digest of the protocol: as §1

The source of these data is patent US8901118B2, “Compounds and methods for kinase modulation, and indications therefor” (Plexxikon Inc., priority 2010, dated 2014).

Fms kinase, sequence (P07333 20-972): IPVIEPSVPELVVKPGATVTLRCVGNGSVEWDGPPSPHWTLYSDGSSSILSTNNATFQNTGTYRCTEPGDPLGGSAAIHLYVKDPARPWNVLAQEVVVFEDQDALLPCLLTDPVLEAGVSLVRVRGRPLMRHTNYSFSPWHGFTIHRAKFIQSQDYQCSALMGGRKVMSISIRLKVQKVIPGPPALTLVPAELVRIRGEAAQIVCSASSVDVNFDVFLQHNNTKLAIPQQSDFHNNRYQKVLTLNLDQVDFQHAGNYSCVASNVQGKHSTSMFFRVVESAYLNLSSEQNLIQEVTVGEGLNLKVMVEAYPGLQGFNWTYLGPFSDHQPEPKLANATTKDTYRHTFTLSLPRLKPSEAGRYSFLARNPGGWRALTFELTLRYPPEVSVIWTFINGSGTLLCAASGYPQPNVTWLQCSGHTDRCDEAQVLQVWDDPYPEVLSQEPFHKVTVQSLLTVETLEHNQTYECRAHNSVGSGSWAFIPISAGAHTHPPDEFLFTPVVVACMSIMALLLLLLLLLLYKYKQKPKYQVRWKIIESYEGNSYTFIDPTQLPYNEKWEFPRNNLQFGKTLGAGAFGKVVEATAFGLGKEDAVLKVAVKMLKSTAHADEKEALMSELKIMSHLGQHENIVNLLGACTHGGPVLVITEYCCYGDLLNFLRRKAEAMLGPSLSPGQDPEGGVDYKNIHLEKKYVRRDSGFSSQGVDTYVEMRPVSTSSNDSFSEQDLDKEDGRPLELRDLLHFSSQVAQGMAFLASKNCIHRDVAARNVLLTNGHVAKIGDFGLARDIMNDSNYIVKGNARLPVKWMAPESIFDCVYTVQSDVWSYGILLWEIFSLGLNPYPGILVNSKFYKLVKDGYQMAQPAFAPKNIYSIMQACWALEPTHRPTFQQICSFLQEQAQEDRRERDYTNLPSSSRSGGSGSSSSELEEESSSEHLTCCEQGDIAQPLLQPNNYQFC
T1 sequence (P10721 589-937): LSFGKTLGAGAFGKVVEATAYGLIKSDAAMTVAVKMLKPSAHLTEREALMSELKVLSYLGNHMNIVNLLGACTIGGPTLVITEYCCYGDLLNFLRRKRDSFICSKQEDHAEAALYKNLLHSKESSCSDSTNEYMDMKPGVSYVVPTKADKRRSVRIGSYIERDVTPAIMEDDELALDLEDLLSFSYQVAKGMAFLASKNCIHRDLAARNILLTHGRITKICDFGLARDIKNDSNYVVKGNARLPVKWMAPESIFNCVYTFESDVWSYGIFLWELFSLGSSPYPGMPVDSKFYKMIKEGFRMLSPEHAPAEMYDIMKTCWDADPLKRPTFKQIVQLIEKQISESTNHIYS

As for `COc1ccccc1Nc1ncc(Cc2c[nH]c3ncc(Cl)cc23)cn1` [Compound P-3016, [5-(5-Chloro-1H-pyrrolo[2,3-b]pyridin-3-ylmethyl)-pyrimidin-2-yl]-(2-methoxy-phenyl)-amine], the IC50 was under 100 nM at Fms kinase, over 1000 nM at BCR-KIT BaF3 cells and under 1000 nM on BCR-FMS BaF3 cells.

Regarding `CCOc1ncnc2[nH]cc(Cc3ccc(Nc4cnn(CC)c4)nc3F)c12` [Compound P-4012, [5-(4-Ethoxy-7H-pyrrolo[2,3-d]pyrimidin-5-ylmethyl)-6-fluoro-pyridin-2-yl]-(1-ethyl-1H-pyrazol-4-yl)-amine], the IC50 at Fms kinase is under 10 nM; at BCR-KIT BaF3 cells, under 1000 nM; at BCR-FMS BaF3 cells it was under 10 nM.

Take `COc1ccc(Nc2ncc(Cc3c[nH]c4ncc(C)cc34)cn2)cc1` [Compound P-3021, (4-Methoxy-phenyl)-[5-(5-methyl-1H-pyrrolo[2,3-b]pyridin-3-ylmethyl)-pyrimidin-2-yl]-amine]: the IC50 at Fms kinase is under 10 nM; on BCR-KIT BaF3 cells, under 100 nM; on BCR-FMS BaF3 cells, under 10 nM.

For the compound `COc1ncnc2[nH]cc(Cc3ccc(Nc4ccc(C)nc4)nc3F)c12` [Compound P-4010, [6-Fluoro-5-(4-methoxy-7H-pyrrolo[2,3-d]pyrimidin-5-ylmethyl)-pyridin-2-yl]-(6-methyl-pyridin-3-yl)-amine], the IC50 was under 10 nM on Fms kinase, under 1000 nM on BCR-KIT BaF3 cells and under 10 nM on BCR-FMS BaF3 cells.

As for `Cc1ccc(Nc2ccc(C(=O)c3c[nH]c4ncc(Cl)cc34)c(F)n2)cn1` [Compound P-3044, (5-Chloro-1H-pyrrolo[2,3-b]pyridin-3-yl)-[2-fluoro-6-(6-methyl-pyridin-3-ylamino)-pyridin-3-yl]-methanone], the IC50 is under 10 nM at Fms kinase, under 1000 nM on BCR-KIT BaF3 cells and under 100 nM on BCR-FMS BaF3 cells.

As to `Cc1ccc(Nc2ccc(Cc3c[nH]c4ncnc(C5CC5)c34)c(F)n2)cn1` [Compound P-4030, [5-(4-Cyclopropyl-7H-pyrrolo[2,3-d]pyrimidin-5-ylmethyl)-6-fluoro-pyridin-2-yl]-(6-methyl-pyridin-3-yl)-amine], the IC50 at Fms kinase was under 10 nM; on BCR-KIT BaF3 cells, under 1000 nM; on BCR-FMS BaF3 cells, under 10 nM.

In the case of `CCOc1ccc(Nc2ccc(Cc3c[nH]c4ncnc(C)c34)c(F)n2)cn1` [Compound P-4006, (6-Ethoxy-pyridin-3-yl)-[6-fluoro-5-(4-methyl-7H-pyrrolo[2,3-d]pyrimidin-5-ylmethyl)-pyridin-2-yl]-amine], the IC50 is under 10 nM on Fms kinase, under 100 nM at BCR-KIT BaF3 cells and under 10 nM on BCR-FMS BaF3 cells.

For `Cc1cnc2[nH]cc(Cc3cnc(Nc4cc(OC(C)C)n[nH]4)nc3)c2c1` [Compound P-3038, (5-Isopropoxy-2H-pyrazol-3-yl)-[5-(5-methyl-1H-pyrrolo[2,3-b]pyridin-3-ylmethyl)-pyrimidin-2-yl]-amine], the IC50 at Fms kinase, on BCR-KIT BaF3 cells and at BCR-FMS BaF3 cells was under 1000 nM throughout.

With `CCc1ccc(Nc2ccc(Cc3c[nH]c4ncnc(OC)c34)c(F)n2)cn1` [Compound P-4007, (6-Ethyl-pyridin-3-yl)-[6-fluoro-5-(4-methoxy-7H-pyrrolo[2,3-d]pyrimidin-5-ylmethyl)-pyridin-2-yl]-amine], the IC50 was under 10 nM at Fms kinase, under 1000 nM at BCR-KIT BaF3 cells and under 10 nM at BCR-FMS BaF3 cells.

For `Cc1cnc2[nH]cc(Cc3cnc(Nc4ccc(C(F)(F)F)nc4)nc3)c2c1` [Compound P-3018, [5-(5-Methyl-1H-pyrrolo[2,3-b]pyridin-3-ylmethyl)-pyrimidin-2-yl]-(6-trifluoromethyl-pyridin-3-yl)-amine], the IC50 on Fms kinase is under 10 nM; on BCR-KIT BaF3 cells it was under 100 nM; on BCR-FMS BaF3 cells, under 100 nM.

As for `Cc1cnc2[nH]cc(Cc3cnc(Nc4ccc(C(O)(C(F)(F)F)C(F)(F)F)cc4)nc3)c2c1` [Compound P-3031, 1,1,1,3,3,3-Hexafluoro-2-{4-[5-(5-methyl-1H-pyrrolo[2,3-b]pyridin-3-ylmethyl)-pyrimidin-2-ylamino]-phenyl}-propan-2-ol], the IC50 at Fms kinase is under 1000 nM; at BCR-KIT BaF3 cells, under 10 nM; at BCR-FMS BaF3 cells it was under 10 nM.

Regarding `Cc1cnc2[nH]cc(Cc3cnc(Nc4ccc(S(C)(=O)=O)cc4)nc3)c2c1` [Compound P-3034, (4-Methanesulfonyl-phenyl)-[5-(5-methyl-1H-pyrrolo[2,3-b]pyridin-3-ylmethyl)-pyrimidin-2-yl]-amine], the IC50 at Fms kinase was under 100 nM; at BCR-KIT BaF3 cells it was under 100 nM; on BCR-FMS BaF3 cells, under 10 nM.

For `O=C(c1ccc(Nc2ccc(C3CC3)nc2)nc1F)c1c[nH]c2ncccc12` [Compound P-3052, [6-(6-Cyclopropyl-pyridin-3-ylamino)-2-fluoro-pyridin-3-yl]-(1H-pyrrolo[2,3-b]pyridin-3-yl)-methanone], the IC50 on Fms kinase and on BCR-FMS BaF3 cells was under 100 nM throughout.

`CCc1ccc(Nc2ccc(Cc3c[nH]c4ncnc(OCCOC)c34)c(F)n2)cn1` [Compound P-4016, (6-Ethyl-pyridin-3-yl)-{6-fluoro-5-[4-(2-methoxy-ethoxy)-7H-pyrrolo[2,3-d]pyrimidin-5-ylmethyl]-pyridin-2-yl}-amine]: the IC50 is under 10 nM on Fms kinase, under 100 nM at BCR-KIT BaF3 cells and under 10 nM on BCR-FMS BaF3 cells.

Take `CCn1ccc(Nc2ncc(Cc3c[nH]c4ncc(C)cc34)cn2)n1` [Compound P-3035, (1-Ethyl-1H-pyrazol-3-yl)-[5-(5-methyl-1H-pyrrolo[2,3-b]pyridin-3-ylmethyl)-pyrimidin-2-yl]-amine]: the IC50 at Fms kinase was under 1000 nM; on BCR-KIT BaF3 cells, under 1000 nM; at BCR-FMS BaF3 cells, under 100 nM.

For the compound `COc1ccc(Nc2ccc(Cc3c[nH]c4ncc(C)cc34)c(F)n2)cn1` [Compound P-3019, [6-fluoro-5-(5-methyl-1H-pyrrolo[2,3-b]pyridin-3-ylmethyl)-pyridin-2-yl]-(6-methoxy-pyridin-3-yl)-amine], the figures for the IC50 at Fms kinase, on BCR-KIT BaF3 cells and at BCR-FMS BaF3 cells were under 10 nM, under 1000 nM and under 10 nM, respectively.

With `COCCOc1ncnc2[nH]cc(Cc3ccc(Nc4ccc(C)nc4)nc3F)c12` [Compound P-4015, {6-Fluoro-5-[4-(2-methoxy-ethoxy)-7H-pyrrolo[2,3-d]pyrimidin-5-ylmethyl]-pyridin-2-yl}-(6-methyl-pyridin-3-yl)-amine], the IC50 at Fms kinase was under 100 nM; at BCR-KIT BaF3 cells, over 1000 nM; at BCR-FMS BaF3 cells it was under 10 nM.

Consider `COc1ncnc2[nH]cc(Cc3ccc(Nc4ccc(Cl)nc4)nc3F)c12` [Compound P-4003, (6-Chloro-pyridin-3-yl)-[6-fluoro-5-(4-methoxy-7H-pyrrolo[2,3-d]pyrimidin-5-ylmethyl)-pyridin-2-yl]-amine], for which the IC50 at Fms kinase is under 100 nM; at BCR-KIT BaF3 cells, over 1000 nM; at BCR-FMS BaF3 cells, under 100 nM.

For the compound `CCOc1ncnc2[nH]cc(Cc3ccc(Nc4cccnc4)nc3F)c12` [Compound P-4021, [5-(4-Ethoxy-7H-pyrrolo[2,3-d]pyrimidin-5-ylmethyl)-6-fluoro-pyridin-2-yl]-pyridin-3-yl-amine], the IC50 on Fms kinase was under 100 nM; at BCR-KIT BaF3 cells it was over 1000 nM; on BCR-FMS BaF3 cells it was under 1000 nM.

As to `CCOc1ccc(Nc2ccc(C(=O)c3c[nH]c4ncc(C)cc34)c(F)n2)cn1` [Compound P-3045, [6-(6-ethoxy-pyridin-3-ylamino)-2-fluoro-pyridin-3-yl]-(5-methyl-1H-pyrrolo[2,3-b]pyridin-3-yl)-methanone], the IC50 on Fms kinase was under 10 nM; on BCR-KIT BaF3 cells it was under 1000 nM; at BCR-FMS BaF3 cells, under 100 nM.

With `Cc1cnc2[nH]cc(C(=O)c3ccc(Nc4ccc(C)nc4)nc3F)c2c1` [Compound P-3043, [2-Fluoro-6-(6-methyl-pyridin-3-ylamino)-pyridin-3-yl]-(5-methyl-1H-pyrrolo[2,3-b]pyridin-3-yl)-methanone], the IC50 on Fms kinase was under 10 nM; on BCR-KIT BaF3 cells it was under 1000 nM; at BCR-FMS BaF3 cells it was under 100 nM.

On to `CCOc1ccc(Nc2ccc(Cc3c[nH]c4ncnc(C5CC5)c34)c(F)n2)cn1` [Compound P-4026, [5-(4-Cyclopropyl-7H-pyrrolo[2,3-d]pyrimidin-5-ylmethyl)-6-fluoro-pyridin-2-yl]-(6-ethoxy-pyridin-3-yl)-amine], for which the IC50 on Fms kinase is under 10 nM; at BCR-KIT BaF3 cells, under 1000 nM; on BCR-FMS BaF3 cells, under 10 nM.

As for `CSc1ccc(Nc2ncc(Cc3c[nH]c4ncc(C)cc34)cn2)cc1` [Compound P-3033, [5-(5-Methyl-1H-pyrrolo[2,3-b]pyridin-3-ylmethyl)-pyrimidin-2-yl]-(4-methylsulfanyl-phenyl)-amine], the IC50 on Fms kinase is under 100 nM; on BCR-KIT BaF3 cells it was under 10 nM; on BCR-FMS BaF3 cells it was under 10 nM.

Consider `Fc1nc(Nc2ccc(C3CC3)nc2)ccc1Cc1c[nH]c2ncccc12` [Compound P-3053, (6-Cyclopropyl-pyridin-3-yl)-[6-fluoro-5-(1H-pyrrolo[2,3-b]pyridin-3-ylmethyl)-pyridin-2-yl]-amine], for which the IC50 at Fms kinase and at BCR-FMS BaF3 cells was under 10 nM each time.
